{"source": "patent US11905255B1", "about": "“Solid state forms of (S)-2-(((S)-6,8-difluoro-1,2,3,4-tetrahydronaphthalen-2-yl)amino)-N-(1-(2-methyl-1-(neopentylamino)propan-2-yl)-1H-imidazol-4-yl)pentanamide and uses thereof” (Pfizer Inc., priority 2019, dated 2024)", "key": {"[1]": {"experiment": "Drying experiments on selected materials, solid form by XRPD", "assay_type": "physicochemical", "text": "Table 6 summarizes the drying conditions for selected materials. • (a) Temperature, RH, and duration of experiments are approximate."}, "[2]": {"method": "Weighed samples of material were treated with aliquots of specified solvents at ambient temperature. Samples were typically sonicated between additions to facilitate dissolution. Complete dissolution was observed through visual inspection. Solubility was calculated based on the total amount of solvent added to achieve complete dissolution and may be greater than the value reported due to incremental solvent addition and the inherent kinetics of dissolution. If dissolution was not observed, values are reported as “less than”. If dissolution was observed upon the first addition of solvent, values are reported as “greater than”.\n• (a) Solubility estimated using solvent addition method via visual assessment of samples. Values are rounded to nearest whole number and reported as “<” if dissolution was not observed. • (b) non-cGMP samples."}, "[3]": {"settings": "3 weeks slurry, gravimetric", "method": "After approximately 24 hours, solids were isolated by centrifugation using eppendorf centrifuge tubes equipped with a 0.45 μm nylon filter. […] Equilibrium solubility of solids isolated were determined gravimetrically as follows. Measured aliquots of mother liquor solutions from the 3-week slurries were place in pre-weighed aluminum TGA pans. Subsequently, solvents were evaporated under ambient conditions or using vacuum. Remaining solids were weighed. • (a) Experiments were conducted for a total of ˜1 week and ˜3 weeks, both with solvent replacement after ˜1 day of slurrying. Solvent ratios (v/v) and duration of experiments are approximate."}}, "note": "Where two headings read alike, the source gives them in different places."}
{"smiles": "Br.Br.CCC[C@H](N[C@H]1CCc2cc(F)cc(F)c2C1)C(=O)Nc1cn(C(C)(C)CNCC(C)(C)C)cn1", "note": "[Form D, (S)-2-(((S)-6,8-difluoro-1,2,3,4-tetrahydronaphthalen-2-yl)amino)-N-(1-(2-methyl-1-(neopentylamino)propan-2-yl)-1H-imidazol-4-yl)pentanamide]", "values": [{"measurement": "XRPD Results after drying", "setting": "[1]; Dried on P2O5, RT, 17 days, RH at prep.: 3%, RH at run: 43%, cell continues: selected peaks slightly shifted", "value": "Consistent with Form D,"}]}
{"smiles": "Br.Br.CCC[C@H](N[C@H]1CCc2cc(F)cc(F)c2C1)C(=O)Nc1cn(C(C)(C)CNCC(C)(C)C)cn1", "note": "[dihydrobromide salt of Compound 1, dihydrobromide salt of (s)-2-(((s)-6,8-difluoro-1,2,3,4-tetrahydronaphthalen-2-yl)amino)-n-(1-(2-methyl-1-(neopentylamino)propan-2-yl)-1h-imidazol-4-yl)pentanamide]", "values": [{"measurement": "Solubility Estimate (a)", "setting": "[2]", "value": "<1", "unit": "mg/mL"}]}
{"smiles": "Br.Br.CCC[C@H](N[C@H]1CCc2cc(F)cc(F)c2C1)C(=O)Nc1cn(C(C)(C)CNCC(C)(C)C)cn1", "note": "[Form A, (S)-2-(((S)-6,8-difluoro-1,2,3,4-tetrahydronaphthalen-2-yl)amino)-N-(1-(2-methyl-1-(neopentylamino)propan-2-yl)-1H-imidazol-4-yl)pentanamide]", "values": [{"measurement": "Solubility (b)", "setting": "[3]; DMF/ACN (65/35), ambient", "value": 10, "unit": "mg/mL"}, {"measurement": "Solubility (b)", "setting": "[3]; DMF/IPA (60/40), ambient", "value": 13, "unit": "mg/mL"}, {"measurement": "Solubility (b)", "setting": "[3]; DMF/MIBK (85/15), ambient", "value": 19, "unit": "mg/mL"}, {"measurement": "Solubility (b)", "setting": "[3]; Dioxane/H2O (70/30), ambient", "value": 24, "unit": "mg/mL"}, {"measurement": "Solubility (b)", "setting": "[3]; EtOH/H2O (60/40), ambient", "value": 36, "unit": "mg/mL"}, {"measurement": "Solubility (b)", "setting": "[3]; H2O, ambient", "value": 14, "unit": "mg/mL"}, {"measurement": "Solubility (b)", "setting": "[3]; MEK/DMF (20/80), ambient", "value": 17, "unit": "mg/mL"}, {"measurement": "Solubility (b)", "setting": "[3]; MeOH (anhydrous), 2-8° C. (cold room)", "value": 13, "unit": "mg/mL"}, {"measurement": "Solubility (b)", "setting": "[3]; MeOH/Acetone (anhydrous) (50/50), ambient", "value": 7, "unit": "mg/mL"}, {"measurement": "Solubility (b)", "setting": "[3]; MeOH/EtOAc (anhydrous) (70/30), ambient", "value": 6, "unit": "mg/mL"}, {"measurement": "Solubility (b)", "setting": "[3]; MeOH/H2O (20/80), ambient", "value": 17, "unit": "mg/mL"}, {"measurement": "Solubility (b)", "setting": "[3]; NMP/Acetone (anhydrous) (85/15), ambient", "value": 36, "unit": "mg/mL"}, {"measurement": "Solubility (b)", "setting": "[3]; PG, ambient", "value": 8, "unit": "mg/mL"}, {"measurement": "Solubility (b)", "setting": "[3]; THF/H2O (85/15), ambient", "value": 25, "unit": "mg/mL"}]}
{"smiles": "Br.Br.CCC[C@H](N[C@H]1CCc2cc(F)cc(F)c2C1)C(=O)Nc1cn(C(C)(C)CNCC(C)(C)C)cn1", "note": "[Form F, (S)-2-(((S)-6,8-difluoro-1,2,3,4-tetrahydronaphthalen-2-yl)amino)-N-(1-(2-methyl-1-(neopentylamino)propan-2-yl)-1H-imidazol-4-yl)pentanamide]", "values": [{"measurement": "XRPD Results after drying", "setting": "[1]; VO, 75° C., 1 day", "value": "Consistent with Form D"}, {"measurement": "XRPD Results after drying", "setting": "[1]; VO, 77° C., 1 day", "value": "Consistent with Form F;"}]}
